Test results published in patent publication US4575498A, “Method for restoring depleted purine nucleotide pools” (priority 1983, dated 1986).

System: postischemic myocardium
Experiment: Myocardial nucleotide and creatine phosphate content, coronary occlusion and reperfusion
Assay type: in vivo, dogs
Experimental: Catheters were placed in the left atrium and aorta, and a snare positioned around the left anterior descending coronary artery in 15 open-chest dogs. Regional myocardial blood flow was measured and transmural tissue samples were obtained using known techniques. Blood flow measurements and tissue samples were obtained prior to and just before release of a 12-minute coronary occlusion. The chest was closed and the animals allowed to awaken. Twenty-four hours later, the animals were anesthetized, the chest opened, blood flow measured, and tissue samples obtained. No hemodynamic measurements were made on the animals.
In seven animals, 200 mM AICAriboside (Sigma Chemical Co.) was infused into the left atrial catether at either 14 μmol/min (n=2) or 37 μmol/min (n=5) beginning with coronary occlusion and continuing for 24 hours. Eight control animals were infused with an equal volume of saline over 24 hours.
Nucleotide and creatine phosphate analyses were performed by high performance liquid chromatography on acid extracts of the tissue as previously described. Nucleotide analysis is described in Example 1, and creatine phosphate analysis is described in Juengling and Kammermeier, Anal. Biochem., 102, 358-361 (1980).
All comparisons between AICAriboside and saline treated animals were done by unpaired analyses.

[1] = endo, 24 Hr postischemic (first column)
[2] = endo, 24 Hr postischemic (second column so headed)
[3] = epi, 24 Hr postischemic (first column)
[4] = epi, 24 Hr postischemic (second column so headed)
[5] = epi, 24 Hr postischemic (second column so headed), P < 0.05 vs saline

## NC(=O)c1ncn([C@@H]2O[C@H](CO)[C@@H](O)[C@H]2O)c1N [AICAriboside, 5-amino-4-imidazolecarboxamide riboside]
24 hours of reperfusion, saline 82% (epi), 78% (endo) of nonischemic levels
  GTP content restoration: restored to nonischemic levels
[1]
  ADP: 0.78 ± 0.09 μmol/g wet wt
  AMP: 0.056 ± 0.019 μmol/g wet wt
  CP (creatine phosphate): 7.8 ± 1.1 μmol/g wet wt
  CTP: 0.052 ± 0.005 μmol/g wet wt
  NAD: 0.57 ± 0.02 μmol/g wet wt
  UTP: 0.121 ± 0.013 μmol/g wet wt
endo, 24 Hr postischemic (first column), P < 0.05 vs saline
  IMP: 0.027 ± 0.007 μmol/g wet wt
[2]
  ADP: 0.75 ± 0.07 μmol/g wet wt
  AMP: 0.041 ± 0.005 μmol/g wet wt
  CP (creatine phosphate): 6.9 ± 0.5 μmol/g wet wt
  CTP: 0.056 ± 0.004 μmol/g wet wt
  NAD: 0.60 ± 0.05 μmol/g wet wt
  UTP: 0.106 ± 0.011 μmol/g wet wt
endo, 24 Hr postischemic (second column so headed), P < 0.05 vs saline
  IMP: 0.017 ± 0.004 μmol/g wet wt
endo, occlusion
  ADP: 0.86 ± 0.06 μmol/g wet wt
  AMP: 0.089 ± 0.012 μmol/g wet wt
  CP (creatine phosphate): 2.0 ± 0.3 μmol/g wet wt
  CTP: 0.016 ± 0.003 μmol/g wet wt
  IMP: 0.008 ± 0.002 μmol/g wet wt
  NAD: 0.45 ± 0.02 μmol/g wet wt
  UTP: 0.055 ± 0.007 μmol/g wet wt
endo, previously ischemic region, 24 hours of reperfusion, saline 21%
  increase in ATP content: 63%
Epi and endo, previously ischemic region, 24 hours of reperfusion, P<0.001
  ATP content vs saline-treated: greater in the AICAriboside group
[3]
  ADP: 0.73 ± 0.05 μmol/g wet wt
  AMP: 0.048 ± 0.009 μmol/g wet wt
  CP (creatine phosphate): 7.1 ± 0.5 μmol/g wet wt
  CTP: 0.051 ± 0.004 μmol/g wet wt
  NAD: 0.56 ± 0.03 μmol/g wet wt
  UTP: 0.104 ± 0.121 μmol/g wet wt
epi, 24 Hr postischemic (first column), P < 0.05 vs saline
  IMP: 0.025 ± 0.007 μmol/g wet wt
[4]
  ADP: 0.70 ± 0.05 μmol/g wet wt
  AMP: 0.036 ± 0.005 μmol/g wet wt
  CP (creatine phosphate): 7.8 ± 0.5 μmol/g wet wt
  CTP: 0.051 ± 0.005 μmol/g wet wt
  UTP: 0.096 ± 0.008 μmol/g wet wt
[5]
  IMP: 0.015 ± 0.004 μmol/g wet wt
  NAD: 0.55 ± 0.02 μmol/g wet wt
epi, occlusion
  ADP: 0.99 ± 0.11 μmol/g wet wt
  AMP: 0.135 ± 0.045 μmol/g wet wt
  CP (creatine phosphate): 2.9 ± 0.7 μmol/g wet wt
  CTP: 0.023 ± 0.003 μmol/g wet wt
  IMP: 0.007 ± 0.001 μmol/g wet wt
  NAD: 0.47 ± 0.03 μmol/g wet wt
  UTP: 0.061 ± 0.007 μmol/g wet wt
epi, previously ischemic region, 24 hours of reperfusion, saline 2%
  increase in ATP content: 41%
Epicardium and endocardium of previously ischemic region, 24 hours of reperfusion, P<0.003
  GTP content vs saline: greater in the AICAriboside group
Postischemic region
  AMP or ADP content vs saline: no detectable differences
  UTP, CTP, or NAD^+ content vs saline: no statistically significant differences
  total adenine nucleotide content (ATP+ADP+AMP) vs saline: greater in the AICAriboside group
Postischemic regions, both groups
  creatine phosphate content restoration: restored to preocclusion levels
Vs saline
  creatine phosphate fall at end of occlusion: fell to a comparable extent
  percentage drop in ATP during ischemia: comparable in both groups
